Data on four compounds can be found in PMC4226669, “Anti-cancer potency of tasquinimod is enhanced via albumin-binding facilitating increased uptake in the tumor microenvironment” (Oncotarget, 2014).

Entries after “also recorded” stand apart in the source; their conditions may differ. Read-outs that look alike come from different tables or passages of the source.

The test system of one series is HUVEC cells. The experiment in a line: In vitro cell metabolism in HUVEC. It counts as in vitro ADME, human. The settings on record: HUVEC exposed to 1 μM 14C-labeled tasquinimod, 48 hours. How it is done: The nuclear uptake results are consistent with tasquinimod being the active drug for both direct therapeutic effects on cancer cells and indirect effects via suppression of the angiogenic response of host endothelial cells. To confirm these conclusions, the concentration of tasquinimod metabolites produced by endothelial cells was compared to the potency of these metabolites for inhibiting angiogenesis. When HUVEC cells are exposed to 1 μM of ^14C-labeled tasquinimod for 48 hours, < 15% of the drug is metabolized with 10% (i.e., 100 nM) being converted to the quinoline-O-demethylated compound and < 2% (i.e., < 20 nM) being converted to the quinoline-N-demethylated or carboxamide-N-demethylated compounds.
For in vitro studies, cells were incubated with 1μM ^14C-labeled tasquinimod for indicated time period and then the media and cells or cell nuclei separately harvested, deproteinated with acetonitrile, and metabolites separated by HPLC and quantitated as described above.

Series [1] deals with CWR-22Rv1 human prostate cancer xenografts. The experiment in a line: Dose-response growth inhibition of established CWR-22Rv1 xenografts (subcutaneous daily injection). As to conditions: 20 days. The series is classed as in vivo, mouse. How it is done:
To confirm these in vitro results, mice were inoculated subcutaneously (SQ) with CWR-22Rv1 cells and remained untreated until the tumors grew to ~ 200 mm3 (i.e., ~ 200 mgs) and then they were randomly assigned to groups (n=10) which were injected SQ daily with 100 μl of propylene glycol vehicle only vs. vehicle delivering 0.1 or 1 mg/kg/day of either tasquinimod or its carboxamide-N-demethylated metabolite. Propylene glycol was used as vehicle due to the low water solubility of the carboxamide-N-demethylated metabolite. After 20 days of continuous treatment, the experiment was terminated and the total weight of each cancer determined and the results expressed both as average tumor weight in grams and as the ratio of the weight of the cancers in the treated vs. vehicle control animals (i.e., T/C ratio), Figure 5A.
(§1) The source, history, and characteristics of the human prostate cancer cell lines (i.e., LNCaP, LAPC4, and CWR-22Rv1 and the human umbilical vascular endothelial cells (HUVEC) used, as well as cell culture conditions for their in vitro maintenance and the in vivo protocol for their xenografting into immune-deficient nude male mice are as described previously. The source, history, and characteristics of the TRAMP-C2 mouse prostate cancer line, as well as cell culture conditions for their in vitro maintenance and the in vivo protocol for their growth in intact adult male syngeneic C57Bl/6J are as described previously. All lines were mycoplasma negative using the MycoSensor PCR Assay kit (Agilent Technologies) and genetically authenticated within the last 6 months using short tandem repeat profiling conducted by the Johns Hopkins Genetic Resource Core Facility. The source, history, and characteristics of the CWR-RH human prostate cancer xenograft are as described previously. In vitro growth curves were determined as described. Animal studies were conducted according to animal protocol MO09M434 approved by Johns Hopkins Animal Care and Use Committee. Daily drug dosing via oral gavage, the drinking water, or subcutaneous injection, as well as tumor volume measurements and determination of the blood vessel density within cancers, were as described previously. These experiments were repeated at 3 independent times for each xenograft.

The nature of the next series: Water solubility. The series is classed as physicochemical.
Series [2] can be described thus: Tissue distribution and metabolites in nude mice bearing CWR-22Rv1 cancers. The settings on record: 4 hours post oral 5mg/kg tasquinimod; for concentration at 4 h: male, nude, mouse. The series is classed as in vivo, mouse. How it is done: To determine the concentration of metabolites, nude mice bearing CWR-22Rv1 prostate cancers were orally administered with 5 mg/kg of ^14C- radiolabeled tasquinimod and 4 and 24 hours later, blood plasma and liver, kidney, and cancer tissue harvested and analyzed for determination of metabolites. […] The predominant metabolite is the O-demethylated quinoline compound, Figure 2A&B, but the concentration of the hydroxylated aromatic quinoline and the N-demethylated quinoline compounds, along with the O-demethylated quinoline compound are also higher in the liver than the blood at the time point studied, Figure 2B. Also in the kidney 40% of the drug is present as metabolites, with the concentration of the hydroxylated aromatic quinoline and the O-demethylated quinoline compounds being higher than in the blood, Figure 2B. In contrast, within the cancer > 80% of the total concentration of drug is present as parent tasquinimod, Figure 2B. Only the O-demethylated quinoline compound is present at a higher concentration in the cancer than blood, Figure 2B. The plasma concentration of total metabolites is < 10% at 4 hours, Figure 2B, and 24 hours post oral dosing with 5 mg/kg, Figure 2A.
Male nude mice bearing 200-300mm^3 CWR-22Rv1 cancers were given ^14C-labeled tasquinimod at a dose of 5 mg/kg via oral gavage. At times ranging from 30 min to 24 hour, groups of 4-6 mice were anaesthetized with ketamine and 1 ml of heparinized blood collected by cardiac puncture, followed by subsequent cardiac perfusion of saline to remove blood associated drug. An aliquot of liver, kidney, and cancer was removed, weighed and then homogenized. The radioactivity in 10 μL aliquots of tissue homogenates and blood plasma was determined using a liquid scintillation counter and used to calculate the total amount of tasquinimod plus its metabolites per gram of tissue or per ml of blood. The remaining sample volume was deproteinated with acetonitrile and the radioactivity of an aliquot of the supernatant determined and the remaining supernatant lyophilized, resuspended initially with 0.1mL dimethyl sulfoxide and diluted by the addition of 0.9mL deionized water prior to injection into the HPLC. The HPLC system consisted of Waters pumps using a Waters gradient controller to deliver mobile phase at a flow rate of 1mL per minute using a Supelcosil ABZ+ C18 column that is 150mm long by 4.6mm diameter and has 5μm particle size. The metabolites were separated using a linear gradient in which the starting mobile phase was 35% acetonitrile: 65% water: 0.1% Trifluoroacetic acid (TFA) increasing to 50% acetonitrile: 50% water: 0.1%TFA over 25 minutes, and then increased rapidly to 98% acetonitrile: 2% water: 0.1%TFA and held until 33 minutes before it is returned to the initial conditions for the next run. Fractions were collected and the radioactivity determined by scintillation counting. As controls, the individual elution time of non-radiolabeled standard solutions of the various tasquinimod metabolites was determined using UV absorption at 215nm. The results were expressed as concentration based upon tissue volume, assuming 1gram wet weight equals 1ml, or normalized to tissue vascular volume.

For series [3], the system named is human umbilical vein endothelial cells (HUVECs). The experiment in a line: 3D in vitro endothelial sprouting and tube formation assay. It counts as cell-based. The settings on record: for IC50: Homo sapiens, HUVEC, 3D-HUVEC sprouting assay, read-out: IC50 (concentration of drug which inhibits by 50% the endothelial sprouting). The source says: A three-dimensional (3D) in vitro endothelial sprouting and tube formation assay was utilized to define the anti-angiogenic potency of tasquinimod vs. these metabolites. In this 3D assay, human umbilical endothelial cells (i.e., HUVECs) are initially grown on microcarrier beads and the cell coated beads embedded in fibrin gels with media conditioned by normal human lung fibroblasts. Under these 3D-conditions, endothelial cells “sprout” producing 3D neovessel tubes with patent lumen within one week, Figure 4A - left panel. When tasquinimod is added at the initiation to these 3D-cultures, sprouting of the endothelial cells is inhibited, Figure 4B-right panel, with the potency for such inhibition, expressed as an IC50 value (i.e., the concentration of drug which inhibits by 50% the endothelial sprouting) of 0.5 μM, Figure 4C. […] Using this 3D-HUVEC assay, the potency (i.e., expressed as IC50) of tasquinimod metabolites to inhibit endothelial sprouting was compared to tasquinimod. […] To further confirm that tasquinimod itself and not the carboxamide-N-demethylated metabolite is the active drug, the response to ketoconazole alone and in combination with tasquinimod was tested in the 3D-endothelial sprouting assay.
The 3-dimensional (3D) in vitro angiogenic sprouting and tube formation assay was used as described previously. This 3D-endothelial sprouting assay was conducted using a minimum of 5 replicate wells per drug dose per experiment, repeated 3 independent times using human umbilical vein endothelial cells (HUVECs; Lonza Walkersville, Inc.) with modification that 20 μL of 10X concentrated Dulbecco's Modified Eagle's Media/10%FCS media conditioned by confluent human primary lung fibroblasts (Lonza) diluted to 200 μL of growth factor supplemented EGM-2 media (Lonza) was used instead of fibroblast co-culture.

In series [4] the test system is CWR-22RH human prostate cancer. The experiment in a line: Tumor take of CWR-22RH xenografts in castrated nude mice. It counts as in vivo, mouse. How it is done:
To confirm this conclusion, castrated male nude mice were xenografted with the castrate resistant CWR-22RH human prostate cancer tissue and the animals immediately randomized into groups (n=10) which were: 1) left untreated as controls; 2) given daily oral treatment with tasquinimod alone via the drinking water (10mg/kg/day); 3) given oral ketoconazole alone via oral gavage at a daily dose which inhibits cytochrome P450 3A4 (i.e., 25 mg/kg/day); or 4) given a combination of the two drugs. […] These combined in vitro/in vivo results document tasquinimod, not one of its metabolites, is the active drug.
as §1

For series [5], the system named is CYP-3A. Details: method as in PMID 15764719. The settings on record: read-out: IC50 for inhibition of CYP-3A; cited from earlier work.
Series [6] deals with CYP-3A. Details: method as in PMID 21391977. As to conditions: oral dose of 25mg/kg/day; cited from earlier work.
[7] abbreviates: CWR-22Rv1 cancer tissue, CWR-22Rv1 cancer, 1gm tissue = 1ml, read-out: concentration in CWR-22Rv1 cancer.
[8] abbreviates: kidney, 1gm tissue = 1ml, read-out: concentration in kidney.
Where [9] appears, read: liver, 1gm tissue = 1ml, read-out: concentration in liver.
The mark [10] stands for this setting: plasma, read-out: concentration in plasma.

Regarding `COc1cccc2c1c(O)c(C(=O)Nc1ccc(C(F)(F)F)cc1)c(=O)n2C` [Carboxamide-N-demethylate], the “concentration of metabolite formed” value in the series on HUVEC cells was less than 20 nM. The “fraction of tasquinimod converted to the metabolite” value (shortened to “fraction of tasquinimod converted”) in the series with HUVEC cells was less than 2%. Besides, the entries for the “Avg Tumor Weight” value in series [1] (0.1 mg/kg/day SQ) and in series [1] (1 mg/kg/day SQ) were 0.891 ± 0.263 g and 0.724 ± 0.223 g, respectively. In addition, the entries for the “T/C Ratio” value in series [1] (0.1 mg/kg/day SQ) and in series [1] (1 mg/kg/day SQ) were 0.512 and 0.415, respectively. Further, in the series “Water solubility”, the water solubility entry is given as “low”. The “percentage of total drug in CWR-22Rv1 cancer” value in series [2] (CWR-22Rv1 cancer) is reported as less than 1%. Moreover, the “percentage of total drug in kidney” value in series [2] (kidney) is less than 1%. Further, the “percentage of total drug in liver” value in series [2] (liver) is on record as less than 1%. Further, the concentration at 4 h in series [2] (setting [7]) was less than 30 nM; in series [2] (setting [8]), less than 30 nM; in series [2] (setting [9]), less than 130 nM; in series [2] (setting [10]), less than 60 nM. In series [2] (plasma), the “percentage of total drug in plasma” value is less than 1%. Also, the IC50 in series [3] worked out at 0.25 µM. In addition, the “fold more potent than tasquinimod (lower IC50) in inhibiting endothelial sprouting” value in series [3] (relative to tasquinimod) is recorded as 2 fold.

As to `COc1cccc2[nH]c(=O)c(C(=O)N(C)c3ccc(C(F)(F)F)cc3)c(O)c12` [Quinoline-N-demethylate], the “concentration of metabolite formed” value with HUVEC cells was less than 20 nM. Moreover, the “fraction of tasquinimod converted” value in the series on HUVEC cells is recorded as less than 2%. Moreover, in series [2] (CWR-22Rv1 cancer), the “percentage of total drug in CWR-22Rv1 cancer” value was less than 1%. For the same compound, in series [2] (kidney), the “percentage of total drug in kidney” value is listed as less than 1%. In series [2] (liver), the “percentage of total drug in liver” value was 2+/-1%. In addition, the concentration at 4 h in series [2] (setting [7]) is less than 30 nM; in series [2] (setting [8]), less than 30 nM; in series [2] (setting [9]), 260 nM; in series [2] (setting [10]) it was less than 60 nM. In series [2] (plasma), the “percentage of total drug in plasma” value was less than 1%. Also, in series [3], the IC50 was found to be 20 µM.

Consider `CN(C(=O)c1c(O)c2c(O)cccc2n(C)c1=O)c1ccc(C(F)(F)F)cc1` [Quinoline-O-demethylate], for which the “concentration of metabolite formed” value with HUVEC cells was 100 nM. Also, the “fraction of tasquinimod converted” value in the series with HUVEC cells stood at 10%. Moreover, the “percentage of total drug in CWR-22Rv1 cancer” value in series [2] (CWR-22Rv1 cancer) is on record as 17+/- 4%. Moreover, the “percentage of total drug in kidney” value in series [2] (kidney) is reported as 36+/-4%. For the same compound, in series [2] (liver), the “percentage of total drug in liver” value is 62+/-7%. Moreover, the concentration at 4 h in series [2] (setting [7]) is 460 nM; in series [2] (setting [8]), 1400 nM; in series [2] (setting [9]), 8100 nM; in series [2] (setting [10]) it was 300 nM. Besides, the “percentage of total drug in plasma” value in series [2] (plasma) is 5+/-1%. For the same compound, the IC50 in series [3] came out at 30 µM.

As to `CC(=O)N1CCN(c2ccc(OCC3COC(Cn4ccnc4)(c4ccc(Cl)cc4Cl)O3)cc2)CC1` (stereo not drawn) [ketoconazole], in series [4] (ketoconazole 25 mg/kg/day combined with tasquinimod 10mg/kg/day), the “effect of ketoconazole on anti-cancer efficacy of tasquinimod” value was “does not affect; also recorded: does not inhibit the therapeutic efficacy of tasquinimod; also recorded: does not suppress”. For the same compound, the “tumor take and growth” value in series [4] (ketoconazole alone 25 mg/kg/day via oral gavage from inoculation) is on record as “does not inhibit either the take or growth”. In addition, the “effect of ketoconazole on tasquinimod's inhibition of 3D HUVEC sprouting” value in series [3] (10 μM ketoconazole simultaneously present with 1 μM tasquinimod) is on record as “does not affect; also recorded: does not prevent inhibition; also recorded: does not suppress”. Moreover, the “inhibition of endothelial sprouting” value in series [3] (ketoconazole alone, 10 μM) is listed as “did not inhibit”. For the same compound, the IC50 with CYP-3A [5] was […]. Moreover, in the series with CYP-3A [6], the “inhibition of CYP-3A” value was more than 90%.
